According to patent US10669242B2 (priority 2016, dated 2020):

Legend:
[1] = test system: C. difficile strain VPI 10463; assay: Acute murine C. difficile infection model; assay type: in vivo, C57BL/6 mice; conditions: for weight loss, time course: acute infection, days after infection, 8 animals per group
Source text: In a hospital environment, C. difficile infection occurs when the patient receives an antibiotic treatment that disrupts the normal gut microflora and is exposed to C. difficile spores. The patient often fails to mount a protective immune response against the acute C. difficile infection. (Rupnik, Wilcox et al. 2009). To study the acute C. difficile infection, we established a murine C. difficile infection model. Details of the infection model are provided in the “Experimental Protocol” (below).
In brief, female C57BL/6 mice were administered the following antibiotics: colistin (0.042 units/mL), gentamicin (0.035 mg/mL), kanamycin (0.4 mg/mL), metronidazole (0.215 mg/mL) and vancomycin (0.045 mg/mL) in drinking water for 3 days. The administered antibiotics disrupted the normal gut microflora in mice. On the 4th day, mice received oral administration of 0.5 mL volume containing ˜100 spores produced from a virulent clinical C. difficile isolate (strain VPI 10463). In this acute murine C. difficile infection model, we observed a similar time course of infection when compared to that of clinical patients.
Using the developed murine C. difficile infection model (Example 67), we evaluated our test compounds for their efficacy in reducing weight loss and gut inflammation caused by the acute C. difficile infection. We tested the efficacy of Example 6a and Example 5ae and used eight (8) animals in each group.
We further tested the efficacy of the Example 6a, Example 5ae, Example 4cl, and Example 5al compounds by PO administration. Vancomycin was used as a positive control. Three (3) experiments were performed utilizing a total of five (5) to sixteen (16) animals in each group.
C. difficile strain VPI 10463 was grown for four (4) days in 10 ml of BHI in a Bactron anaerobic workstation (Shel Lab). The culture was centrifuged at 2,700 g for 10 minutes. The bacterial pellet was washed with 10 mL of PBS and the centrifugation was repeated. The pellet was then re-suspended in 10 mL of PBS, incubated at 56° C. for 10 minutes, and then was frozen at −20° C. until used. Titers of spore stocks were determined by serial dilution and plating onto BHI and with 1% taurocholate and counting of colonies after incubation for 24 hours at 37° C. using the GasPak EZ Anaerobe Pouch System.
We utilized an established C. difficile murine infection model (Chen, Katchar et al. 2008). To render them susceptible to infection, female C57BL/6 mice (˜10 weeks old and weighing ˜20 g) were administered the following antibiotics (Sigma Aldrich) in drinking water for 3 days (Days −6 to −3): colistin (0.042 units/mL), gentamicin (0.035 mg/mL), kanamycin (0.4 mg/mL), metronidazole (0.215 mg/mL) and vancomycin (0.045 mg/mL). Based upon an expected water consumption of 100 mL/kg/day, the approximate doses of these antibiotics will be as follows: colistin (4.2 units/kg/day), gentamicin (3.5 mg/kg/day), kanamycin (40 mg/kg/day), metronidazole (21.5 mg/kg/day) and vancomycin (4.5 mg/kg/day). The animals were provided with regular drinking water for two days (Day −2 and Day −1), and the next day (Day 0) they were administered clindamycin phosphate (1 mg/mL solution in PBS) at 10 mL/kg by intraperitoneal injection, for a final dose of 10 mg/kg body weight. The following day (Day 1), they were orally gavaged with ˜100 spores in a 0.5 ml volume.
Compounds were administered beginning ˜8 hours after infection, and the animals were dosed twice per day for two days (Days 2-3) with a total of four doses. Compounds were prepared as 5 mg/mL suspensions in 20% PEG-400, 0.4% carboxymethyl cellulose and 0.2% Tween 80 and administered at a dose of 10 mL/kg, for a final dose of 50 mg/kg body weight.
Animals were observed and weighed two (2) to (3) times daily. Animals that were obviously moribund or had lost >20% of their initial body weight were euthanized. Sub-groups of animals were euthanized four (4) hours after the final compound dose (52 hours after infection). […]

[2] = biological target: T1, recombinant glucosyltransferase domain of C. difficile Toxin B/TcdB (Clostridioides difficile, UniProt P18177); assay: biochemical
T1 construct: 6-His (C); purchased R&D Systems 6246-GT

[3] = biological target: T2, C. difficile full-length toxin TcdB (Clostridioides difficile, UniProt P18177); assay: cell-based
T2 construct: C. difficile full-length toxins (TcdA or TcdB); purchased EMD Millipore 616377

C. difficile = assay type: in vivo, C57/BL6 mice; conditions: relapse model; for weight loss, days 8-9 after infection: PO, vancomycin 20 mg/kg once per day for five days
[4] = biological target: T3, C. difficile full-length toxin TcdA (Clostridioides difficile, UniProt P16154); assay: cell-based
T3 construct: C. difficile full-length toxins (TcdA or TcdB); purchased Enzo Life Sciences BML-G140-0050
T3 sequence (P16154 whole entry, looked up): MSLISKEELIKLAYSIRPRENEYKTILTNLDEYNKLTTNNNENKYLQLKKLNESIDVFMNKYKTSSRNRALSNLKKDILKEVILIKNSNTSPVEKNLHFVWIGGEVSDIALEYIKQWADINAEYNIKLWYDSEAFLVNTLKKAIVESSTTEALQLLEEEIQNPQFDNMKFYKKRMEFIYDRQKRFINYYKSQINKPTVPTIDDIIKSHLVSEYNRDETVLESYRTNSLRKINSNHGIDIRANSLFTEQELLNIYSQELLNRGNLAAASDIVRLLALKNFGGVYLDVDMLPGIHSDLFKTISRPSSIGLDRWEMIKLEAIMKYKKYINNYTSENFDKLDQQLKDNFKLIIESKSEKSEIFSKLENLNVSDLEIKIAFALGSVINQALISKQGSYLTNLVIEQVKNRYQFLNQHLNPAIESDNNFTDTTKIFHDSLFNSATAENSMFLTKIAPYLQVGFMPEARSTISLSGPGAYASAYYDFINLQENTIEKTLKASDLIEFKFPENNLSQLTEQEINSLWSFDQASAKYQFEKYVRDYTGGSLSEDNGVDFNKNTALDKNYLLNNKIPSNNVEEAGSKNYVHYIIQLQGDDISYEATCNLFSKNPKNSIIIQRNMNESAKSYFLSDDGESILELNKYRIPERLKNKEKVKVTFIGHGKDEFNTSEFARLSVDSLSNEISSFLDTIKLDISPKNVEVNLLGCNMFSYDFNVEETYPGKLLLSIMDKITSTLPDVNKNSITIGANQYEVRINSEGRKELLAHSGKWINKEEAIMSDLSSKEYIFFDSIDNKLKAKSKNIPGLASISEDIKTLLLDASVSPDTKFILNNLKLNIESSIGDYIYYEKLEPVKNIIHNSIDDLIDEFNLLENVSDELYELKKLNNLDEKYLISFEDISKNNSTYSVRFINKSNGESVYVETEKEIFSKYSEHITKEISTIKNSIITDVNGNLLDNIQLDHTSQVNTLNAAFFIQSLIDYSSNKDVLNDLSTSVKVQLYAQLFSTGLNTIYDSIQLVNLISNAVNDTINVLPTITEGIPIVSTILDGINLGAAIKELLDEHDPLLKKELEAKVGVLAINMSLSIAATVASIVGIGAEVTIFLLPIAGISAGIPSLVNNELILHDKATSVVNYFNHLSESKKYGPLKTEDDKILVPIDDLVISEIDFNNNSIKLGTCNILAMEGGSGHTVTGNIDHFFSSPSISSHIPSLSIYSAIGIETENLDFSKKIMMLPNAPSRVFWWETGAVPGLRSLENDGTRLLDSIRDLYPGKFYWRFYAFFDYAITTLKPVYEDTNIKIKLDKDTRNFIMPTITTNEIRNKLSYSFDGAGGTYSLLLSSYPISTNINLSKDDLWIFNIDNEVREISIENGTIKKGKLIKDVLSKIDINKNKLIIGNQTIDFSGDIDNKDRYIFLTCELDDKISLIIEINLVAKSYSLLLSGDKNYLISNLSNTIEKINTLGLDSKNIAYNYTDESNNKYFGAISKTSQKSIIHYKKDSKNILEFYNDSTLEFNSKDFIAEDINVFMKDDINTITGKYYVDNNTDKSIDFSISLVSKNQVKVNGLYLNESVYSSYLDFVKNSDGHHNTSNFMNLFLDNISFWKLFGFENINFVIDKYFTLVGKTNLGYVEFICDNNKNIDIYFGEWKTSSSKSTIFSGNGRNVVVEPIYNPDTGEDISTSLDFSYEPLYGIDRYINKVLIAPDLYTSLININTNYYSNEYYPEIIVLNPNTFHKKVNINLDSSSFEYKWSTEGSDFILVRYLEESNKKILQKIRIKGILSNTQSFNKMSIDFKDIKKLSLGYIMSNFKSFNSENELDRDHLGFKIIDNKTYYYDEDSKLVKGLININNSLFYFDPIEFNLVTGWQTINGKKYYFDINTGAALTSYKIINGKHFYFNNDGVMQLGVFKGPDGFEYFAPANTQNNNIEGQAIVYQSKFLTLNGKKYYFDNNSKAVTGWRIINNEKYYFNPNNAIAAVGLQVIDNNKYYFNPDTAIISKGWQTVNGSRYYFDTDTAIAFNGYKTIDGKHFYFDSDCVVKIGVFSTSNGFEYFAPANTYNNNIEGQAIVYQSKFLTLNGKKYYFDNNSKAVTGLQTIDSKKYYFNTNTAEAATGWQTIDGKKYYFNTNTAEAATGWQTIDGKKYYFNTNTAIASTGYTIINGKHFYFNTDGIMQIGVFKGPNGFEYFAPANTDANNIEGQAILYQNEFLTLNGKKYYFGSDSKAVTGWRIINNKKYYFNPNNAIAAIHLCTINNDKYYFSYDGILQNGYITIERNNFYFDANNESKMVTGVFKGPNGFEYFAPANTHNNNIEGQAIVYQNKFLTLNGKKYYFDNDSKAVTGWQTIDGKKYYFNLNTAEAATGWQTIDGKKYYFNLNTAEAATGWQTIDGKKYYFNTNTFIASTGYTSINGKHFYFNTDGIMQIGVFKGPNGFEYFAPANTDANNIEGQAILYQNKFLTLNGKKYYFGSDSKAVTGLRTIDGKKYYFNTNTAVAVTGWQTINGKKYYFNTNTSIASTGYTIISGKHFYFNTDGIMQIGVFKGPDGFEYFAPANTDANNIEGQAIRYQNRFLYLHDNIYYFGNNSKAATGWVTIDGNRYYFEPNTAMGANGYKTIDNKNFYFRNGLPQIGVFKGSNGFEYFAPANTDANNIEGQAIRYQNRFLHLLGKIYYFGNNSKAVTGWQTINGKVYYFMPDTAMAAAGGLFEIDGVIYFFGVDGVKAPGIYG

T2 sequence (P18177 2-2366 limits assumed): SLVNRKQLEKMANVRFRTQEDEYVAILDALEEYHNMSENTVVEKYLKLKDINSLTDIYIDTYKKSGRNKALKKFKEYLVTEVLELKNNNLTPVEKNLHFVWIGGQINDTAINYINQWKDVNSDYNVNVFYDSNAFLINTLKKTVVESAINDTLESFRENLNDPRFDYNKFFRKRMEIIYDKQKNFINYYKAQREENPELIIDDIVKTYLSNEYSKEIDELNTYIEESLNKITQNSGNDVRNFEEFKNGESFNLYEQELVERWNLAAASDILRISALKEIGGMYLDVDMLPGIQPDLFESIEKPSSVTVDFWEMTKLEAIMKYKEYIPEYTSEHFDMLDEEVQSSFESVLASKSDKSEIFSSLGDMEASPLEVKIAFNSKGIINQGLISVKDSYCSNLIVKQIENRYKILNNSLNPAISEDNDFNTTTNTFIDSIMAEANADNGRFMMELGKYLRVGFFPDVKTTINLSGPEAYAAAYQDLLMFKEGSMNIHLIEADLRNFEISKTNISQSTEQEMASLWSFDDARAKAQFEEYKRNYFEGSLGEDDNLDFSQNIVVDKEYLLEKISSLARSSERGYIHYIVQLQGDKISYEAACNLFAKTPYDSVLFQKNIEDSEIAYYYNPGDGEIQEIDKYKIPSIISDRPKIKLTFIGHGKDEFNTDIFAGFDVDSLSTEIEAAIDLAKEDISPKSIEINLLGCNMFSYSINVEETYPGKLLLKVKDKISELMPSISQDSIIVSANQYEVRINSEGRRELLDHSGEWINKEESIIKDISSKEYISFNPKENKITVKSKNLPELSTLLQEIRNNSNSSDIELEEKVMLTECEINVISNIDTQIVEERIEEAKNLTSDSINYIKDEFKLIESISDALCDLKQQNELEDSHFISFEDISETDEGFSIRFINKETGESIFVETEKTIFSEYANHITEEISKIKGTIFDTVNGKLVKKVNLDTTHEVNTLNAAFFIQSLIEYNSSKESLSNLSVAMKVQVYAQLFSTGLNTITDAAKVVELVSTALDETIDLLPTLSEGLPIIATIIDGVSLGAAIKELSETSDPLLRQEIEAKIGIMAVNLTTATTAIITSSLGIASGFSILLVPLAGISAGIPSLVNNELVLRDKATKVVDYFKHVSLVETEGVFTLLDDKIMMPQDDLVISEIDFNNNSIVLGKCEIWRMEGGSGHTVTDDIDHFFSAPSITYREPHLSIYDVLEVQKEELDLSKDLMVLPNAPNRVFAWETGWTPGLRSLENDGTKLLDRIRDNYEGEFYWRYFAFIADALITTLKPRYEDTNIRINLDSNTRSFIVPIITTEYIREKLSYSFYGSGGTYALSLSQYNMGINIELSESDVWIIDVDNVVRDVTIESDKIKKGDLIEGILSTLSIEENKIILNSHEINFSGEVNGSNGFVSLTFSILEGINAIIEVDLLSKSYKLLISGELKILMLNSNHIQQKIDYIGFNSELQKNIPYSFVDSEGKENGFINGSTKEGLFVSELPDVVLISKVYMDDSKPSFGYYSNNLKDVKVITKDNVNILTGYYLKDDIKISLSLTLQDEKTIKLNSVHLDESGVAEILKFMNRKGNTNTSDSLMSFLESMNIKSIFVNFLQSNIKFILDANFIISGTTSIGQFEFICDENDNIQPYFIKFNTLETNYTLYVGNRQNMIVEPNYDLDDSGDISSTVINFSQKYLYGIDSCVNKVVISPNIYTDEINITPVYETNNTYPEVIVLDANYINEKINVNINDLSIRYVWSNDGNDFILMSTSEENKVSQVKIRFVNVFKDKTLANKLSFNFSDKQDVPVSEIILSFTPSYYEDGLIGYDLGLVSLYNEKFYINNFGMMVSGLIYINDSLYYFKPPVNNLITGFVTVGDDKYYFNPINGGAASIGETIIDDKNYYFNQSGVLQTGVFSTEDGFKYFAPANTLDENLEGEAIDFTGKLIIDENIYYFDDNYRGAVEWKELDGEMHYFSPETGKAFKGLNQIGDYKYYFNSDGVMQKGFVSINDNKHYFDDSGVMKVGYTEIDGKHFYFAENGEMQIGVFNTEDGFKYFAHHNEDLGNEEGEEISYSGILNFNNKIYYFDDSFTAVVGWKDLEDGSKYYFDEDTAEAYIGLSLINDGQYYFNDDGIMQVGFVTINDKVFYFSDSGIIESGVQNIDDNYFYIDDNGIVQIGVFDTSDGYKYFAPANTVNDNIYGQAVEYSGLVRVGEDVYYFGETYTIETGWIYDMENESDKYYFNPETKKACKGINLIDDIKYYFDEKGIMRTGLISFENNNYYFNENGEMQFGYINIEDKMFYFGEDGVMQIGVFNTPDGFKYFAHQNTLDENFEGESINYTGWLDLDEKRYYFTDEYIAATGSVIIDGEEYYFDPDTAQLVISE

Row | Compound | toxin effect on colon length ([1]; PO, 52 hours after infection) | weight loss, time course [1] | IC50 [2] [nM] | IC50 [3] [nM] | mice that died/expired on Days 8-9 (C. difficile; 8 mice per group) | relapsing disease (C. difficile; 8 mice per group) | mice euthanized due to body weight loss of >20% (C. difficile; Day 4, 8 mice per group) | weight loss, days 8-9 after infection (C. difficile) | IC50 [4] [nM]
1 | O=C(Nc1ccc(C(F)(F)F)cn1)c1ccc(CN2C(=O)c3ccc(Cl)cc3NC(=O)[C@H]2Cc2ccccn2)cc1Cl [Example 5ae, (R)-2-Chloro-4-((8-chloro-2,5-dioxo-3-(pyridin-2-ylmethyl)-2,3-dihydro-1H-benzo[e][1,4]diazepin-4(5H)-yl)methyl)-N-(5-(trifluoromethyl)pyridin-2-yl)benzamide] | significantly reduced the toxin effect on colon length | significantly reduced weight loss 2.5 and 3.0 days after infection | < 100 | 100 to 999 | none | prevention of relapsing disease | 1 | significantly reduced weight loss 8.0, 8.5 and 9.0 days after infection | 1000 to 10000
2 | COc1ccc(NC(=O)c2ccc(CN3C(=O)c4ccc(Cl)cc4NC(=O)[C@H]3Cc3ccccn3)cc2F)nc1 [Example 6a, (R)-4-((8-Chloro-2,5-dioxo-3-(pyridin-2-ylmethyl)-2,3-dihydro-1H-benzo[e][1,4]diazepin-4(5H)-yl)methyl)-2-fluoro-N-(5-methoxypyridin-2-yl)benzamide] | – | significantly reduced weight loss 2.25, 2.5 and 3.0 days after infection | < 100 | < 100 | none | prevention of relapsing disease | – | significantly reduced weight loss 8.0, 8.5 and 9.0 days after infection | 100 to 999
